From PubChem BioAssay (NCI) come the findings set out here.

Test systems include MDA-MB-435; HCT-116 colon; OVCAR-8 ovarian; A498 renal; HCT-15 colon; ACHN renal; NCI/ADR-RES ovarian; PC-3 prostate; OVCAR-3 ovarian; SN12C renal.
What all share (assay): NCI tumour cell line growth inhibition, 48 h

The structures appear in SMILES notation. Several values for one entry are separate records, joined by “and”; a condition that tells them apart may be missing. Equal values may be shown once.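 Step 1: Grow cells in 96-well plates. Step 2: Expose to compound for 48 hours at 5 concentrations. Step 3: Interpolate endpoints linearly; if unreached, use highest concentration. GI50: concentration for 50% inhibition of growth. At the TGI there is no net growth.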

With `CCN(Cc1ccccc1Cl)c1ccc(CO)c(Cl)c1`, the GI50 with MDA-MB-435 was 9.19 µM; in the assay on HCT-116 colon, 0.131 µM; in the assay on OVCAR-8 ovarian, 12.8 µM; in the assay on A498 renal, below 0.0219 µM; in the assay with HCT-15 colon it was 10.2 µM; in the assay on ACHN renal, 13.7 µM. The GI50 is 12.2 µM with NCI/ADR-RES ovarian, 12.5 µM in the assay with PC-3 prostate, 0.774 µM in the assay with OVCAR-3 ovarian and 11.5 µM in the assay on SN12C renal. Also, the TGI worked out at 23.9 µM in the assay with MDA-MB-435; 11.8 µM in the assay with HCT-116 colon; 27.1 µM in the assay with OVCAR-8 ovarian; 0.0672 µM with A498 renal; 24 µM in the assay with HCT-15 colon; 27.3 µM with ACHN renal. The TGI with NCI/ADR-RES ovarian was 26.5 µM; in the assay on PC-3 prostate, 25.8 µM; in the assay on OVCAR-3 ovarian, 4.32 µM; in the assay with SN12C renal it was 24 µM.

`CCCC[n+]1c(/C=C\c2c(OC)cc(OC)cc2OC)ccc2ccccc21`: the GI50 in the assay with MDA-MB-435 was 0.393 µM; in the assay with HCT-116 colon, 0.413 µM; with OVCAR-8 ovarian, 0.613 µM; with A498 renal it was 0.157 µM; in the assay with HCT-15 colon it was 2.84 µM; in the assay on ACHN renal, 3.01 µM. The GI50 in the assay on NCI/ADR-RES ovarian was 15.9 µM; with PC-3 prostate, 0.737 µM; in the assay with OVCAR-3 ovarian, 0.515 µM; in the assay on SN12C renal, 0.728 µM. Moreover, the TGI with MDA-MB-435 worked out at 1.87 µM; with HCT-116 colon, 3.48 µM; in the assay on OVCAR-8 ovarian, 7.69 µM; in the assay on A498 renal it was 2.87 µM; in the assay on HCT-15 colon it was 12.3 µM; in the assay with ACHN renal it was 11.8 µM. For the same molecule, the TGI in the assay on NCI/ADR-RES ovarian was above 71.9 µM; in the assay with PC-3 prostate, 5.71 µM; in the assay on OVCAR-3 ovarian it was 2.57 µM; in the assay on SN12C renal, 5.77 µM.

For the molecule `COc1cccc(-n2cc(-c3nc(Nc4cc(C)[nH]n4)c4ccccc4n3)nn2)c1`, the GI50 with MDA-MB-435 was 2.24 µM; in the assay on HCT-116 colon, 2.1 µM; with OVCAR-8 ovarian it was 2.88 µM; with A498 renal it was 0.291 µM; with HCT-15 colon it was 0.228 µM; in the assay on ACHN renal, 0.261 µM. Moreover, the GI50 was 0.234 µM with NCI/ADR-RES ovarian, 3.48 µM in the assay on PC-3 prostate, 5.71 µM in the assay on OVCAR-3 ovarian and 3.04 µM in the assay with SN12C renal. The TGI with MDA-MB-435 stood at 9.18 µM; in the assay with HCT-116 colon, 10.5 µM; with OVCAR-8 ovarian it was 11.7 µM; in the assay on A498 renal, 7.08 µM; in the assay on HCT-15 colon it was 9.23 µM; with ACHN renal it was 7.04 µM. Moreover, the TGI in the assay on NCI/ADR-RES ovarian stood at 12.5 µM; in the assay on PC-3 prostate it was 11.9 µM; with OVCAR-3 ovarian, 12.6 µM; in the assay with SN12C renal it was 12.4 µM.

On to `O=c1c2cccc(F)c2sc2c(N3CCNCC3)nc3ccccc3c12`, for which the GI50 in the assay with MDA-MB-435 is 1.74 µM; in the assay with HCT-116 colon, 0.931 µM; in the assay with OVCAR-8 ovarian it was 1.51 µM; with A498 renal, 1.92 µM; in the assay with HCT-15 colon, 1.29 µM; in the assay on ACHN renal, 1.19 µM. Further, the GI50 is 1.6 µM in the assay with NCI/ADR-RES ovarian, 1.26 µM with PC-3 prostate, 1.59 µM with OVCAR-3 ovarian and 1.32 µM with SN12C renal. Besides, the TGI came out at 3.2 µM with MDA-MB-435; 2.16 µM in the assay with HCT-116 colon; 3.42 µM in the assay with OVCAR-8 ovarian; 8.51 µM in the assay on A498 renal; 2.71 µM in the assay with HCT-15 colon; 2.43 µM with ACHN renal. Besides, the TGI in the assay with NCI/ADR-RES ovarian worked out at 3.21 µM; with PC-3 prostate, 2.7 µM; in the assay on OVCAR-3 ovarian, 3.04 µM; with SN12C renal, 2.72 µM.

For `Cc1[nH]c(C(=O)Nc2ccccc2OC2CCNCC2)c(Cl)c1Cl`, the GI50 with MDA-MB-435 is 0.883 µM; with HCT-116 colon, 0.837 µM; in the assay with OVCAR-8 ovarian it was 1.07 µM; with A498 renal it was 2.71 µM; with HCT-15 colon, 0.912 µM; with ACHN renal, 0.995 µM. Moreover, the GI50 was 1.27 µM in the assay on NCI/ADR-RES ovarian, 1.39 µM in the assay with PC-3 prostate, 0.931 µM in the assay on OVCAR-3 ovarian and 0.86 µM with SN12C renal. Besides, the TGI was determined as 1.62 µM in the assay with MDA-MB-435; 1.59 µM in the assay on HCT-116 colon; 2.4 µM with OVCAR-8 ovarian; 9.47 µM in the assay with A498 renal; 1.88 µM in the assay with HCT-15 colon; 2.05 µM in the assay with ACHN renal. The TGI was found to be 3.57 µM with NCI/ADR-RES ovarian, 5.23 µM in the assay on PC-3 prostate, 1.68 µM with OVCAR-3 ovarian and 1.59 µM in the assay on SN12C renal.

Consider `Cc1cc2nc3ccc(=[N+](C)C)cc-3sc2cc1N`, for which the GI50 in the assay with MDA-MB-435 is 0.209 µM and 0.256 µM; with HCT-116 colon, 0.226 µM and 0.232 µM; in the assay on OVCAR-8 ovarian, 0.27 µM and 0.8 µM; in the assay on A498 renal, 1.33 µM and 1.93 µM; in the assay with HCT-15 colon, 0.384 µM and 0.63 µM; in the assay with ACHN renal, 0.844 µM and 1.1 µM. Also, the GI50 is 0.272 µM and 0.265 µM in the assay with NCI/ADR-RES ovarian; 0.121 µM and 0.173 µM with PC-3 prostate; 0.178 µM and 0.26 µM in the assay on OVCAR-3 ovarian; 0.821 µM and 1.15 µM in the assay with SN12C renal. For the same molecule, the TGI with MDA-MB-435 is 0.46 µM and 2.18 µM and 0.665 µM; with HCT-116 colon, 1.2 µM and 5.03 µM and 0.98 µM; in the assay with OVCAR-8 ovarian, 1.99 µM and 7.22 µM and 7.3 µM; in the assay on A498 renal, 14.2 µM and 47.2 µM and 12 µM; with HCT-15 colon, 10.9 µM and 18.6 µM and 6.98 µM; in the assay with NCI/ADR-RES ovarian, 3.61 µM and 7.98 µM and 1.49 µM. For the same molecule, the TGI with PC-3 prostate was 2.65 µM and 7.2 µM and 3.43 µM; in the assay with OVCAR-3 ovarian, 0.992 µM and 9.89 µM and 1.25 µM; with SN12C renal, 3.7 µM and 10.6 µM and 2.52 µM.

As to `COC1=C(Br)C(O)C2(C=C1Br)CC(C(=O)NCCCCNC(=O)C1=NOC3(C=C(Br)C(OC)=C(Br)C3O)C1)=NO2` (centres undefined), the TGI in the assay with MDA-MB-435 is 49.8 µM; in the assay with HCT-116 colon it was 49.3 µM; with OVCAR-8 ovarian it was above 100 µM; in the assay on A498 renal it was above 100 µM; in the assay on HCT-15 colon, above 100 µM; with ACHN renal it was 75.1 µM. Moreover, the TGI in the assay with NCI/ADR-RES ovarian was above 100 µM; in the assay with PC-3 prostate, 62.8 µM; in the assay on OVCAR-3 ovarian it was 39.4 µM; with SN12C renal it was above 100 µM.

With `COc1ccc2c(Cc3c4ccccc4cc4ccccc34)cncc2c1O`, the TGI in the assay with MDA-MB-435 is 0.622 µM; in the assay on HCT-116 colon, 16.1 µM; in the assay with OVCAR-8 ovarian it was 5.74 µM; with A498 renal, 23.9 µM; in the assay with HCT-15 colon, above 22 µM; in the assay with ACHN renal, 27.3 µM. Moreover, the TGI in the assay with NCI/ADR-RES ovarian is 9.17 µM; in the assay on PC-3 prostate, above 59.9 µM; in the assay on OVCAR-3 ovarian, 8.97 µM; in the assay with SN12C renal, above 63.9 µM.

For `C/C(=N\NC(=S)N1CCN(C2CCCCCC2)CC1)c1ccccn1`, the TGI with MDA-MB-435 was 2 µM; in the assay with HCT-116 colon it was 1.65 µM; with OVCAR-8 ovarian, 7.94 µM and 2.63 µM; with A498 renal, 3.76 µM; in the assay on HCT-15 colon, 3.55 µM and 2.1 µM; with ACHN renal, 2.7 µM. The TGI in the assay on NCI/ADR-RES ovarian stood at 0.676 µM; in the assay with PC-3 prostate, 2.07 µM; in the assay with OVCAR-3 ovarian, 1.74 µM; in the assay with SN12C renal, 2.96 µM. Besides, the GI50 in the assay with HCT-116 colon is below 0.001 µM; in the assay on OVCAR-8 ovarian it was below 0.001 µM; in the assay with HCT-15 colon, below 0.001 µM; in the assay with ACHN renal, 0.00121 µM; in the assay with SN12C renal, 2.02 µM.

For `C=C1CC[C@@H]2[C@](C)(COC(C)=O)[C@H](OC(C)=O)CC[C@@]2(C)[C@@H]1CC(Nc1ccc(S(=O)(=O)Nc2cc(C)on2)cc1)C1=CCOC1=O` (some centres undefined), the GI50 in the assay with MDA-MB-435 was 1.74 µM; in the assay on HCT-116 colon it was 1.12 µM; in the assay on OVCAR-8 ovarian, 1.88 µM; in the assay with A498 renal, 7.69 µM; with HCT-15 colon it was 1.5 µM; in the assay with ACHN renal, 1.71 µM. The GI50 in the assay with NCI/ADR-RES ovarian was 2.41 µM; with PC-3 prostate it was 1.98 µM; in the assay with OVCAR-3 ovarian, 1.66 µM; in the assay on SN12C renal, 1.73 µM. The TGI in the assay on MDA-MB-435 came out at 4.37 µM; in the assay on HCT-116 colon it was 2.39 µM; with OVCAR-8 ovarian it was 4.3 µM; in the assay on A498 renal, 20.3 µM; in the assay with HCT-15 colon it was 3.83 µM; in the assay with ACHN renal it was 3.48 µM. For the same molecule, the TGI worked out at 12 µM with NCI/ADR-RES ovarian, 4.31 µM with PC-3 prostate, 3.09 µM in the assay on OVCAR-3 ovarian and 4.52 µM in the assay on SN12C renal.
